Measured values reported in the NIST ThermoML archive (doi:10.1021/je800110r).
Numbers after ± are expanded uncertainties.

Details: 323.14 K, Liquid, Vibrating tube method

CCCCCCCCCC [decane]
Details | mass density [kg/m3]
6233 kPa | 712.5 ± 2
6244 kPa | 712.5 ± 2
6414 kPa | 712.6 ± 2
6459 kPa | 712.7 ± 2
6531 kPa | 712.7 ± 2
6557 kPa | 712.8 ± 2
6576 kPa | 712.8 ± 2
6597 kPa | 712.9 ± 2
6619 kPa | 712.7 ± 2
6725 kPa | 712.9 ± 2
6747 kPa | 713 ± 2
6764 kPa | 712.9 ± 2
6781 kPa | 713.1 ± 2
6809 kPa | 713 ± 2
6826 kPa | 713 ± 2
6855 kPa | 713 ± 2
6870 kPa | 713 ± 2
6893 kPa | 713.1 ± 2
7285 kPa | 713.4 ± 2
7382 kPa | 713.6 ± 2
7397 kPa | 713.5 ± 2
7411 kPa | 713.6 ± 2
7428 kPa | 713.5 ± 2
7445 kPa | 713.5 ± 2
7465 kPa | 713.7 ± 2
7482 kPa | 713.5 ± 2
7509 kPa | 713.6 ± 2
7525 kPa | 713.5 ± 2
7542 kPa | 713.8 ± 2
7557 kPa | 713.7 ± 2
7580 kPa | 713.6 ± 2
7601 kPa | 713.7 ± 2
7618 kPa | 713.7 ± 2
7634 kPa | 713.7 ± 2
7652 kPa | 713.7 ± 2
7670 kPa | 713.8 ± 2
7683 kPa | 713.8 ± 2
7696 kPa | 713.7 ± 2
7715 kPa | 713.7 ± 2
7737 kPa | 713.8 ± 2
7758 kPa | 713.9 ± 2
7774 kPa | 713.9 ± 2
7790 kPa | 713.8 ± 2
7809 kPa | 713.9 ± 2
7828 kPa | 713.9 ± 2
7850 kPa | 714 ± 2
7869 kPa | 714 ± 2
7894 kPa | 713.9 ± 2
7916 kPa | 713.9 ± 2
7935 kPa | 714.1 ± 2
7956 kPa | 714 ± 2
7977 kPa | 714.1 ± 2
7997 kPa | 714.1 ± 2
8016 kPa | 714 ± 2
8033 kPa | 714.1 ± 2
8054 kPa | 714.1 ± 2
8074 kPa | 714.1 ± 2
8097 kPa | 714.1 ± 2
8121 kPa | 714.2 ± 2
8138 kPa | 714.2 ± 2
8158 kPa | 714.1 ± 2
8179 kPa | 714.2 ± 2
8197 kPa | 714.3 ± 2
8218 kPa | 714.3 ± 2
8245 kPa | 714.3 ± 2
8263 kPa | 714.3 ± 2
8284 kPa | 714.3 ± 2
8306 kPa | 714.4 ± 2
8333 kPa | 714.4 ± 2
8348 kPa | 714.4 ± 2
8376 kPa | 714.5 ± 2
8451 kPa | 714.3 ± 2
8476 kPa | 714.5 ± 2
8495 kPa | 714.5 ± 2
8518 kPa | 714.6 ± 2
8543 kPa | 714.5 ± 2
8582 kPa | 714.5 ± 2
8625 kPa | 714.6 ± 2
8654 kPa | 714.7 ± 2
8677 kPa | 714.6 ± 2
8707 kPa | 714.7 ± 2
8738 kPa | 714.7 ± 2
8762 kPa | 714.6 ± 2
8789 kPa | 714.7 ± 2
8813 kPa | 714.7 ± 2
8834 kPa | 714.8 ± 2
8855 kPa | 714.8 ± 2
8876 kPa | 714.7 ± 2
8907 kPa | 714.8 ± 2
8932 kPa | 714.8 ± 2
8957 kPa | 714.9 ± 2
8990 kPa | 714.8 ± 2
9031 kPa | 715 ± 2
9048 kPa | 715 ± 2
9072 kPa | 715.1 ± 2
9095 kPa | 715 ± 2
9118 kPa | 715.1 ± 2
9139 kPa | 715 ± 2
9160 kPa | 715.1 ± 2
9185 kPa | 715.1 ± 2
9212 kPa | 715 ± 2
9231 kPa | 715 ± 2
9255 kPa | 715.2 ± 2
9277 kPa | 715.1 ± 2
9304 kPa | 715.3 ± 2
9344 kPa | 715.2 ± 2
9366 kPa | 715.1 ± 2
9390 kPa | 715.1 ± 2
9415 kPa | 715.2 ± 2
9434 kPa | 715.3 ± 2
9476 kPa | 715.4 ± 2
9504 kPa | 715.4 ± 2
9524 kPa | 715.4 ± 2
9550 kPa | 715.4 ± 2
9576 kPa | 715.4 ± 2
9607 kPa | 715.3 ± 2
9630 kPa | 715.4 ± 2
9653 kPa | 715.5 ± 2
9676 kPa | 715.5 ± 2
9703 kPa | 715.4 ± 2
9721 kPa | 715.6 ± 2
9741 kPa | 715.5 ± 2
9766 kPa | 715.5 ± 2
9789 kPa | 715.5 ± 2
9813 kPa | 715.5 ± 2
9834 kPa | 715.6 ± 2
9852 kPa | 715.7 ± 2
9870 kPa | 715.7 ± 2
9901 kPa | 715.7 ± 2
9920 kPa | 715.7 ± 2
9941 kPa | 715.6 ± 2
9965 kPa | 715.8 ± 2
9990 kPa | 715.7 ± 2
10015 kPa | 715.8 ± 2
10040 kPa | 715.9 ± 2
10068 kPa | 715.9 ± 2
10093 kPa | 715.9 ± 2
10113 kPa | 715.9 ± 2
10141 kPa | 715.8 ± 2
10166 kPa | 715.9 ± 2
10189 kPa | 715.8 ± 2
10208 kPa | 715.9 ± 2
10238 kPa | 716 ± 2
10264 kPa | 716 ± 2
10291 kPa | 716 ± 2
10367 kPa | 716.1 ± 2
10397 kPa | 716.1 ± 2
10421 kPa | 716.1 ± 2
10442 kPa | 716.2 ± 2
10472 kPa | 716.2 ± 2
10493 kPa | 716.2 ± 2
10520 kPa | 716.1 ± 2
10579 kPa | 716.2 ± 2
10608 kPa | 716.2 ± 2
10639 kPa | 716.3 ± 2
10664 kPa | 716.2 ± 2
10686 kPa | 716.4 ± 2
10714 kPa | 716.4 ± 2
10739 kPa | 716.4 ± 2
10771 kPa | 716.4 ± 2
10796 kPa | 716.4 ± 2
10826 kPa | 716.4 ± 2
10852 kPa | 716.5 ± 2
10882 kPa | 716.5 ± 2
10909 kPa | 716.5 ± 2
10931 kPa | 716.6 ± 2
10956 kPa | 716.5 ± 2
10988 kPa | 716.6 ± 2
11010 kPa | 716.6 ± 2
11042 kPa | 716.7 ± 2
11071 kPa | 716.7 ± 2
11103 kPa | 716.7 ± 2
11126 kPa | 716.8 ± 2
11156 kPa | 716.7 ± 2
11185 kPa | 716.7 ± 2
11209 kPa | 716.9 ± 2
11236 kPa | 716.8 ± 2
11259 kPa | 716.7 ± 2
11422 kPa | 717 ± 2
11448 kPa | 717 ± 2
11495 kPa | 717 ± 2
11520 kPa | 717 ± 2
11538 kPa | 717.1 ± 2
11560 kPa | 717 ± 2
11582 kPa | 717 ± 2
11601 kPa | 717.2 ± 2
11626 kPa | 717 ± 2
11645 kPa | 717.1 ± 2
11670 kPa | 717.2 ± 2
11695 kPa | 717 ± 2
11718 kPa | 717.2 ± 2
11739 kPa | 717.1 ± 2
11755 kPa | 717.1 ± 2
11781 kPa | 717.2 ± 2
11813 kPa | 717.3 ± 2
11845 kPa | 717.4 ± 2
11865 kPa | 717.2 ± 2
11891 kPa | 717.4 ± 2
11927 kPa | 717.4 ± 2
11954 kPa | 717.4 ± 2
11974 kPa | 717.4 ± 2
12001 kPa | 717.4 ± 2
12022 kPa | 717.4 ± 2
12046 kPa | 717.5 ± 2
12071 kPa | 717.5 ± 2
12283 kPa | 717.7 ± 2
12299 kPa | 717.6 ± 2
12320 kPa | 717.7 ± 2
12335 kPa | 717.6 ± 2
12350 kPa | 717.7 ± 2
12372 kPa | 717.8 ± 2
12543 kPa | 717.9 ± 2
12558 kPa | 717.9 ± 2
12576 kPa | 717.9 ± 2
12592 kPa | 717.9 ± 2
12612 kPa | 718 ± 2
12628 kPa | 717.9 ± 2
12644 kPa | 717.9 ± 2
12667 kPa | 717.9 ± 2
12689 kPa | 718 ± 2
12714 kPa | 718.1 ± 2
12739 kPa | 718.1 ± 2
12755 kPa | 718 ± 2
12770 kPa | 718 ± 2
12790 kPa | 718.3 ± 2
12807 kPa | 718.1 ± 2
12823 kPa | 718.1 ± 2
12837 kPa | 718 ± 2
12936 kPa | 718.2 ± 2
12949 kPa | 718.2 ± 2
13023 kPa | 718.3 ± 2
13043 kPa | 718.3 ± 2
13073 kPa | 718.3 ± 2
13090 kPa | 718.3 ± 2
13112 kPa | 718.3 ± 2
13128 kPa | 718.4 ± 2
13145 kPa | 718.3 ± 2
13160 kPa | 718.4 ± 2
13180 kPa | 718.4 ± 2
13197 kPa | 718.5 ± 2
13215 kPa | 718.4 ± 2
13228 kPa | 718.4 ± 2
13244 kPa | 718.4 ± 2
13258 kPa | 718.4 ± 2
13272 kPa | 718.4 ± 2
13285 kPa | 718.4 ± 2
13303 kPa | 718.6 ± 2
13314 kPa | 718.5 ± 2
13328 kPa | 718.5 ± 2
13346 kPa | 718.4 ± 2
13361 kPa | 718.4 ± 2
13379 kPa | 718.4 ± 2
13395 kPa | 718.6 ± 2
13413 kPa | 718.5 ± 2
13429 kPa | 718.6 ± 2
13443 kPa | 718.6 ± 2
13457 kPa | 718.6 ± 2
13476 kPa | 718.7 ± 2
13496 kPa | 718.6 ± 2
13510 kPa | 718.6 ± 2
13531 kPa | 718.5 ± 2
13547 kPa | 718.7 ± 2
13565 kPa | 718.7 ± 2
13587 kPa | 718.7 ± 2
13601 kPa | 718.6 ± 2
13622 kPa | 718.7 ± 2
13639 kPa | 718.7 ± 2
13660 kPa | 718.8 ± 2
13677 kPa | 718.8 ± 2
13699 kPa | 718.8 ± 2
13715 kPa | 718.9 ± 2
13732 kPa | 718.8 ± 2
13753 kPa | 718.9 ± 2
13770 kPa | 718.9 ± 2
